Numbers after ± are expanded uncertainties.
Key:
[1] = 101.33 kPa, Liquid; for electrical conductivity: Alternating current cell with electrodes; for viscosity: Capillary tube (Ostwald / Ubbelohde) method; for speed of sound: Linear variable-path acoustic interferometer; for mass density: Vibrating tube method
[2] = refractive index (Na D-line) (dimensionless); conditions: 101.33 kPa, Liquid, Standard Abbe refractometry

CC(=O)[O-].CCn1cc[n+](C)c1 [1-ethyl-3-methylimidazolium acetate]
Conditions	electrical conductivity, [1] [S/m]	mass density, [1] [kg/m3]	refractive index, [2]	speed of sound, [1] [m/s]	viscosity, [1] [mPa·s]
283.15 K	0.114 ± 0.002	1107.56 ± 0.47	1.50423 ± 0.00036	1778 ± 3	388.6 ± 20
288.15 K	0.162 ± 0.003	1104.47 ± 0.47	1.50283 ± 0.00036	1764 ± 3	258.4 ± 12
293.15 K	0.222 ± 0.004	1101.36 ± 0.47	1.50144 ± 0.00036	1750 ± 3	179.1 ± 8.1
298.15 K	0.296 ± 0.006	1098.26 ± 0.47	1.50001 ± 0.00036	1737 ± 3	128.5 ± 5.5
303.15 K	0.382 ± 0.008	1095.16 ± 0.47	1.49861 ± 0.00036	1725 ± 3	95.23 ± 4
308.15 K	0.48 ± 0.01	1092.07 ± 0.46	1.49718 ± 0.00036	1712 ± 3	72.42 ± 2.9
313.15 K	0.594 ± 0.012	1089 ± 0.46	1.49577 ± 0.00036	1700 ± 3	56.38 ± 2.3
318.15 K	0.827 ± 0.017	1085.94 ± 0.46	1.49436 ± 0.00036	1687 ± 3	44.79 ± 1.8
323.15 K	0.986 ± 0.02	1082.9 ± 0.46	1.49295 ± 0.00036	1675 ± 3	36.23 ± 1.5
328.15 K	–	1079.87 ± 0.46	1.49154 ± 0.00036	1664 ± 3	29.78 ± 1.2
333.15 K	–	1076.84 ± 0.46	1.49015 ± 0.00036	1652 ± 3	24.82 ± 1
338.15 K	–	1073.83 ± 0.46	1.48876 ± 0.00036	1640 ± 3	20.95 ± 0.85
343.15 K	–	1070.83 ± 0.46	1.48734 ± 0.00036	1628 ± 3	17.88 ± 0.72

Reference: the NIST ThermoML archive (doi:10.1016/j.jct.2012.07.022)
